Results on six compounds are retold here after US12564190B2, “Biobased herbicide enhancer agent and method for using the same” (priority 2021, dated 2026).

Common to all, as to format: in vivo
In one test the test system is potato plants. The experiment in a line: Desiccation of potato plants, field plots, visual evaluation 15 days after treatment. The conditions noted are these: three herbicides tested. The source says:
The desiccant was applied by spraying.

Another test concerns Lemna minor. The test can be described thus: Herbicide activity on Lemna minor in vitro, fresh weight reduction after one week. Particulars: fresh weight reduction compared to untreated plants, 7-day exposure, all chemicals 10 mg/L. As to the method: The experiment was carried out in Lemna minor growing in vitro conditions. Lemna minor (duckweed) was bought in the local market. A stock culture was maintained on modified Hoagland medium in a controlled environment. The pH of the medium was adjusted to 6.0, and the plants were grown under static conditions in a plant growth chamber at 25±2° C., light/dark regime of 16 h/8 h.
For the experiments, fronds free from any visible chlorosis were taken from the stock cultures and exposed to the appropriate treatment. For each treatment, we used six repetitions with three fronds per repetition as the initial frond number. Individual fronds were transferred to a 12 well multiplate containing Hoagland medium (control), Hoagland medium containing polyferulates, herbicides or the combination as shown in Table 9. All chemicals were evaluated at the same concentration (10 mg/L). The multiplate was covered with a transparent cover to prevent evaporation. The herbicide activity was evaluated as fresh weight reduction compared to untreated plants after one week of incubation in the described conditions.

In another test the test system is Echinochloa colona. The experiment in a line: Herbicide activity on Echinochloa colona plants, visual evaluation 20 days after treatment. Particulars: E. colona, 20 DAT, application rate 110 g a.i. ha^−1. The source says: Echinochloa colona is a cosmopolitan weed common in crops (mainly rice, maize and vegetables), gardens, roadsides, disturbed sites, waste areas and pastures. It also grows along waterways, on the margins of lakes and ponds, in swamps and wetlands, and in other damp habitats. It has the potential to invade natural areas and completely outcompete native vegetation. This weed pose a significant threat to rice productivity globally and are usually reported as noxious weeds in several economically important crops around the world. E. colona has vigorous growth traits and high seed production since each E. colona plant can produce up to 42,000 seeds. The experiment in Echinochloa colona plants was carried out in independent pots and in four replications. […] The products were applied by spraying. The herbicide activity was visually evaluated 20 days after treatment.

In the case of `COc1cc(/C=C/C(=O)O)ccc1O` [Ferulic acid, (2E)-3-(4-hydroxy-3methoxyphenyl) prop-2-enoic acid], the “Effect in combination with the herbicides tested (synergism or antagonism according to Colby)” value in the test with potato plants is recorded as “antagonist”.

Regarding `CCOC1Oc2ccc(OS(C)(=O)=O)cc2C1(C)C` (stereo not shown) [Ethofumesate], the Herbicide activity in the test with Lemna minor stood at 0%.

Turning to `COC(=O)c1cccc(C)c1S(=O)(=O)NC(=O)Nc1nc(OCC(F)(F)F)nc(N(C)C)n1` [Triflusulfuron-methyl], the Herbicide activity in the test on Lemna minor came out at 34%.

With Diferulic acid, the “Effect in combination with the herbicides tested (synergism or antagonism according to Colby)” value in the test on potato plants is on record as “antagonist”.

In the case of `COC(=O)Nc1cccc(OC(=O)Nc2cccc(C)c2)c1` [Phenmedipham], the Herbicide activity with Lemna minor worked out at 3%.

Turning to `CCCC(=NOCC(C)Oc1ccc(Cl)cc1)C1=C(O)CC(C2CCCSC2)CC1=O` (stereo not shown) [Profoxydim], the Herbicide activity with Lemna minor was 45%; with Echinochloa colona, 34.
